Experiment [1] has as its system pERK in MKN1 cells. Kind of experiment: cells. The experiment is classed as cell-based.
In experiment [2] the target is recombinant human SOS1 polypeptide (amino acids 560-1049) (Homo sapiens (Human), UniProt Q07889). The experiment is described as follows: biochemical. The experiment is classed as binding. The conditions noted are these: read-out: Ki, Inhibition of Labeled Tracer Binding to SOS1.
Experimental: The ability of a compound of Formula (I) to bind to SOS1 was measured using a HTRF displacement assay. […] After a 1-hour incubation at room temperature, the HTRF signal was measured using Clairostar plate reader (BMG Labtech) according to the manufacturer's instructions. Excitation filter EX-TR was used, and emission 1 was detected at 650-610 nm and emission 2 detected at 620-610 nm. The HTRF ratio was calculated using the formula: [emission 1/emission 2]*10000.
Background signals were calculated from well with a 10 μM inhibitor, known to inhibit 100% at that concentration. The background subtracted signals were converted to % binding relative to DMSO controls. Data were analyzed using XLFIT software (IDBS) using a Morrison equation for competitive binding and Ki's were generated compound of Formula (I).
The mark [3] stands for this setting: Homo sapiens, MKN-1, pERK inhibition, In-Cell Western, MKN1 or H358 cells (Table 24 does not say which), 0.5-1 hour incubation, read-out: IC50.
[4] abbreviates: HTRF displacement, Cy5 labelled tracer, Morrison equation for competitive binding.

In general, pIC50 refers to −log10 of the IC50, conventionally taken in molar units. The term pKi denotes the negative decadic logarithm of the Ki, by convention in mol/L.

pIC50, pKi: −log10 of the molar value. Where a name gives a salt, the structure may show the parent alone. Read-outs that look alike come from different tables or passages of the source.

Chain of recombinant human SOS1 polypeptide (amino acids 560-1049) (Q07889 560-1049): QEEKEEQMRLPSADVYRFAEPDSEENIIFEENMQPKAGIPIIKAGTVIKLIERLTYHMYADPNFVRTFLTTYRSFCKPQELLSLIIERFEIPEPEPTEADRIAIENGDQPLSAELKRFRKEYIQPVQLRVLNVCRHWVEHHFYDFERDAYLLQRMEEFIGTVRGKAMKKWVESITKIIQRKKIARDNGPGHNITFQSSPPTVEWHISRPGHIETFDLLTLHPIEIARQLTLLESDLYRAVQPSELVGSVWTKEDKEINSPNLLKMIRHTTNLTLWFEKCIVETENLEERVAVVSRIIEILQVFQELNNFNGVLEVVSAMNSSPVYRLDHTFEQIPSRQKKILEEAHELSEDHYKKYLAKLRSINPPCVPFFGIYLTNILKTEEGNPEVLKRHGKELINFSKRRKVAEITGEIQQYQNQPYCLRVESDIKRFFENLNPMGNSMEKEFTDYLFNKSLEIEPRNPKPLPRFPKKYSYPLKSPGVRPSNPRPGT

With `Cc1nnc(N[C@H](C)c2cc(O)cc(C(F)(F)F)c2)c2cc(N3CCOCC3)ncc12` [Example 21-1, (R)-3-(1-((4-methyl-7-morpholinopyrido[3,4-d]pyridazin-1-yl)amino)ethyl)-5-(trifluoromethyl)phenol], in experiment [1] (setting [3]), the pIC50 was 7.11. Also, the pKi in experiment [2] (setting [4]) is 8.53.

In experiment [1] (Homo sapiens, MKN-1), `Cc1c([C@@H](C)Nc2nnc(C)c3ccc(N4CCC5(CCNC5)CC4)cc23)cccc1C(F)(F)F` [Example 10-36, (R)-4-methyl-N-(1-(2-methyl-3-(trifluoromethyl)phenyl)ethyl)-7-(2,8-diazaspiro[4.5]decan-8-yl)phthalazin-1-amine hydrochloride salt] showed a pIC50 of 7.10. In addition, the pKi in experiment [2] was 9.64.

Turning to `Cc1c(C#N)cccc1[C@@H](C)Nc1nnc(C)c2cnc(N3CCN(c4cnn(C)c4)CC3)cc12` [Example 12-36], the negative-log IC50 (pIC50) in experiment [1] (setting [3]) was 7.92. Moreover, the pKi in experiment [2] (setting [4]) was 9.00.

Regarding `Cc1c([C@@H](C)Nc2nnc(C)c3cnc(N4CCC4)cc23)cccc1C(F)(F)F` [Example 12-38], the pIC50 in experiment [1] (setting [3]) was 7.01. Also, in experiment [2] (setting [4]), the pKi is 8.89.

Take `Cc1c([C@@H](C)Nc2nnc(C)c3cnc(N4CCN5CCOC[C@@H]5C4)cc23)cccc1C(F)(F)F` [Example 12-14]: the negative logarithm of the IC50 (pIC50) in experiment [1] (setting [3]) is 7.77. Moreover, the negative-log Ki (pKi) in experiment [2] (setting [4]) was 9.26.

For the compound `Cc1c([C@@H](C)Nc2nnc(C)c3ccc(N4CCC5(CCCN5)CC4)cc23)cccc1C(F)(F)F` [Example 10-18, (R)-4-methyl-N-(1-(2-methyl-3-(trifluoromethyl)phenyl)ethyl)-7-(1,8-diazaspiro[4.5]decan-8-yl)phthalazin-1-amine], the pIC50 in experiment [1] (pERK inhibition, In-Cell Western, MKN1 or H358 cells (Table 24 does not say which), 0.5-1 hour incubation, read-out: IC50) was 6.54. The negative-log Ki (pKi) in experiment [2] (setting [4]) was 8.85.

`Cc1c(C#N)cccc1[C@@H](C)Nc1nnc(C)c2c(F)cc(N3CCN4COCC[C@@H]4C3)cc12` [Example 21-9, 3-((R)-1-((5-fluoro-7-((R)-hexahydro-2H,6H-pyrazino[1,2-c][1,3]oxazin-2-yl)-4-methylphthalazin-1-yl)amino)ethyl)-2-methylbenzonitrile]: the pIC50 in experiment [1] (setting [3]) was 7.27. The pKi in experiment [2] (setting [4]) is 8.68.

In turn, `Cc1c(C#N)cccc1[C@@H](C)Nc1nnc(C)c2ccc(N3CC(C)(N(C)C)C3)cc12` [Example 10-74, (R)-3-(1-((7-(3-(dimethylamino)-3-methylazetidin-1-yl)-4-methylphthalazin-1-yl)amino)ethyl)-2-methylbenzonitrile Hydrochloride salt] gave a negative logarithm of the IC50 (pIC50) in experiment [1] (Homo sapiens, MKN-1) of 7.19. Moreover, in experiment [2], the pKi was 8.37.

For the compound `Cc1c([C@@H](C)Nc2nnc(C)c3cnc(N4CCC(C)(O)CC4)cc23)cccc1C(F)(F)F` [Example 12-7], the pIC50 in experiment [1] (setting [3]) is 7.18. Also, the negative logarithm of the Ki (pKi) in experiment [2] (setting [4]) is 9.40.

Turning to `Cc1c(C#N)cccc1[C@@H](C)Nc1nnc(C)c2cnc(N3CCC(N4CCC4)CC3)cc12` [Example 12-29], in experiment [1] (setting [3]), the pIC50 was 7.80. Further, the pKi in experiment [2] (setting [4]) is 8.78.

Regarding `Cc1nnc(N[C@H](C)c2cc(F)cc(C(F)(F)F)c2)c2cc(N3CCOCC3)ccc12` [Example 10-50, (R)-N-(1-(3-fluoro-5-(trifluoromethyl)phenyl)ethyl)-4-methyl-7-morpholinophthalazin-1-amine], the negative logarithm of the IC50 (pIC50) in experiment [1] (setting [3]) was 6.69. Besides, the pKi in experiment [2] (setting [4]) was 8.43.

With `Cc1nnc(N[C@H](C)c2ccc(F)cc2F)c2cc(N3CC(C)(O)C3)ncc12` [Example 12-47], in experiment [1] (setting [3]), the pIC50 was 6.51. In experiment [2] (setting [4]), the pKi is 7.41.

Consider `Cc1nnc(N[C@H](C)c2ccc(F)cc2Cl)c2cc(N3CCOCC3)ccc12` [Example 10-59, (R)-N-(1-(2-chloro-4-fluorophenyl)ethyl)-4-methyl-7-morpholinophthalazin-1-amine Hydrochloride salt], for which the pIC50 in experiment [1] (Homo sapiens, MKN-1) is 6.24. Besides, the negative logarithm of the Ki (pKi) in experiment [2] was 7.51.

Regarding `Cc1c([C@@H](C)Nc2nnc(C)c3ccc(O[C@H]4CCOC4)cc23)cc(N)cc1C(F)(F)F` [Example 15-3, N-((R)-1-(5-amino-2-methyl-3-(trifluoromethyl)phenyl)ethyl)-4-methyl-7-(((S)-tetrahydrofuran-3-yl)oxy)phthalazin-1-amine], in experiment [1] (setting [3]), the pIC50 was 7.47. Besides, in experiment [2] (setting [4]), the negative-log Ki (pKi) is 9.03.

For the compound `Cc1c([C@@H](C)Nc2nnc(C)c3ccc(N4CC5CCC(C4)N5C)cc23)cccc1C(F)(F)F` [Example 10-29, 4-methyl-N-((R)-1-(2-methyl-3-(trifluoromethyl)phenyl)ethyl)-7-(8-methyl-3,8-diazabicyclo[3.2.1]octan-3-yl)phthalazin-1-amine hydrochloride salt], the pIC50 in experiment [1] (Homo sapiens, MKN-1) was 7.15. Further, the negative logarithm of the Ki (pKi) in experiment [2] was 9.41.

For `Cc1cccc(C(C)Nc2nnc(C)c3ccc(N4CCOCC4)cc23)c1Cl` (centres unmarked) [Example 10-60, N-(1-(2-chloro-3-methylphenyl)ethyl)-4-methyl-7-morpholinophthalazin-1-amine], in experiment [1] (setting [3]), the pIC50 is 6.02. Besides, in experiment [2] (setting [4]), the negative logarithm of the Ki (pKi) is 8.70.

Regarding `Cc1c([C@@H](C)Nc2nncc3ccc(N4CC(=O)N(C)CC4C)cc23)cccc1C(F)(F)F` (stereo partly drawn) [Example 1-26, 1,5-dimethyl-4-(4-(((R)-1-(2-methyl-3-(trifluoromethyl)phenyl)ethyl)amino)phthalazin-6-yl)piperazin-2-one], the negative-log IC50 (pIC50) in experiment [1] (setting [3]) was 7.24. In experiment [2] (setting [4]), the pKi was 8.94.

As for `Cc1c([C@@H](C)Nc2nnc(C)c3ccc(O[C@H]4CCN(C)C4)cc23)cccc1C(F)(F)F` [Example 7-5, 4-methyl-N-((R)-1-(2-methyl-3-(trifluoromethyl)phenyl)ethyl)-7-(((S)-1-methylpyrrolidin-3-yl)oxy)phthalazin-1-amine], in experiment [1] (setting [3]), the pIC50 is 6.96. In addition, the negative logarithm of the Ki (pKi) in experiment [2] (setting [4]) was 9.09.

With `COC1(C)CN(c2cc3c(N[C@H](C)c4cccc(C(F)(F)F)c4C)nnc(C)c3cn2)C1` [Example 12-37], in experiment [1] (setting [3]), the pIC50 was 7.49. Besides, the pKi in experiment [2] (setting [4]) is 9.07.

Consider `Cc1c([C@@H](C)Nc2nnc(C)c3ccc(N4CC(C)(O)C4)cc23)cccc1C(F)(F)F` [Example 10-47, (R)-3-methyl-1-(1-methyl-4-((1-(2-methyl-3-(trifluoromethyl)phenyl)ethyl)amino)phthalazin-6-yl)azetidin-3-ol], for which the pIC50 in experiment [1] (setting [3]) is 7.26. Besides, the pKi in experiment [2] (setting [4]) was 8.92.

Consider `Cc1c([C@@H](C)Nc2nnc(C)c3ccc(N4CCC(N(C)C)C4)cc23)cccc1C(F)(F)F` (stereo in doubt) [Example 10-27, 7-((R)-3-(dimethylamino)pyrrolidin-1-yl)-4-methyl-N-((R)-1-(2-methyl-3-(trifluoromethyl)phenyl)ethyl)phthalazin-1-amine hydrochloride salt], for which, in experiment [1] (Homo sapiens, MKN-1), the negative-log IC50 (pIC50) was 6.81. In addition, the pKi in experiment [2] is 9.34.

Take `Cc1c(C#N)cc(F)cc1[C@@H](C)Nc1nnc(C)c2cnc(N3CCN4CCOC[C@@H]4C3)cc12` [Example 12-103]: the pIC50 in experiment [1] (setting [3]) was 6.97. Further, the pKi in experiment [2] (setting [4]) is 7.96.

Regarding `Cc1c([C@@H](C)Nc2nnc(C)c3cnc(N4CCN(c5cnn(C)c5)CC4)cc23)cccc1C(F)(F)F` [Example 12-1, (R)-4-methyl-7-(4-(1-methyl-1H-pyrazol-4-yl)piperazin-1-yl)-N-(1-(2-methyl-3-(trifluoromethyl)phenyl)ethyl)pyrido[3,4-d]pyridazin-1-amine], in experiment [1] (setting [3]), the pIC50 was 8.30. Besides, in experiment [2] (setting [4]), the pKi is 9.70.

In turn, `Cc1c(C#N)cccc1[C@@H](C)Nc1nnc(C)c2ccc(N3C[C@H]4C[C@@H]3CO4)cc12` [Example 10-54, 3-((R)-1-((7-((1R,4R)-2-oxa-5-azabicyclo[2.2.1]heptan-5-yl)-4-methylphthalazin-1-yl)amino)ethyl)-2-methylbenzonitrile Formate salt] gave a pIC50 in experiment [1] (Homo sapiens, MKN-1) of 7.32. The pKi in experiment [2] was 8.87.

As for `Cc1c([C@@H](C)Nc2nnc(C)c3ccc(N4CC(C)(N(C)C)C4)cc23)cccc1C(F)(F)F` [Example 10-66, (R)-7-(3-(dimethylamino)-3-methylazetidin-1-yl)-4-methyl-N-(1-(2-methyl-3-(trifluoromethyl)phenyl)ethyl)phthalazin-1-amine], the pIC50 in experiment [1] (setting [3]) is 6.97. Further, the pKi in experiment [2] (setting [4]) was 9.11.

Consider `Cc1c([C@@H](C)Nc2nnc(C)c3ccc(N4C5CCC4CN(C)C5)cc23)cccc1C(F)(F)F` [Example 10-28, 4-methyl-N-((R)-1-(2-methyl-3-(trifluoromethyl)phenyl)ethyl)-7-(3-methyl-3,8-diazabicyclo[3.2.1]octan-8-yl)phthalazin-1-amine hydrochloride salt], for which, in experiment [1] (Homo sapiens, MKN-1), the pIC50 was 6.79. The negative logarithm of the Ki (pKi) in experiment [2] is 9.35.

For `Cc1cc(F)ccc1[C@@H](C)Nc1nnc(C)c2cnc(N3CCN4CCOC[C@@H]4C3)cc12` [Example 12-79], the negative-log IC50 (pIC50) in experiment [1] (setting [3]) is 6.76. Further, the negative-log Ki (pKi) in experiment [2] (setting [4]) is 7.44.

With `Cc1c(C#N)cccc1[C@@H](C)Nc1nnc(C)c2cnc(N(C)C)cc12` [Example 12-45], in experiment [1] (setting [3]), the negative logarithm of the IC50 (pIC50) was 6.60. Moreover, the negative logarithm of the Ki (pKi) in experiment [2] (setting [4]) is 8.42.

As to `Cc1c([C@@H](C)Nc2nnc(C)c3ccc(N4CCN5C(=O)CC[C@@H]5C4)cc23)cccc1C(F)(F)F` [Example 10-12, (R)-2-(1-methyl-4-(((R)-1-(2-methyl-3-(trifluoromethyl)phenyl)ethyl)amino)phthalazin-6-yl)hexahydropyrrolo[1,2-a]pyrazin-6(2H)-one], the negative logarithm of the IC50 (pIC50) in experiment [1] (setting [3]) was 7.54. In experiment [2] (setting [4]), the pKi was 9.40.

Turning to `Cc1nnc(N[C@H](C)c2cccc(C#N)c2)c2cc(N3CCOCC3)ccc12` [Example 6-15, (R)-3-(1-((4-methyl-7-morpholinophthalazin-1-yl)amino)ethyl)benzonitrile], the pIC50 in experiment [1] (setting [3]) was 6.76. In addition, the negative logarithm of the Ki (pKi) in experiment [2] (setting [4]) is 7.90.

Take `Cc1c(C#N)cccc1[C@@H](C)Nc1nnc(C)c2cc(F)c(N3CCNCC3)cc12` [Example 18-4, (R)-3-(1-((6-fluoro-4-methyl-7-(piperazin-1-yl)phthalazin-1-yl)amino)ethyl)-2-methylbenzonitrile]: the negative logarithm of the IC50 (pIC50) in experiment [1] (setting [3]) was 7.39. The pKi in experiment [2] (setting [4]) was 8.79.

Source of the values: US11702418B2, “SOS1 inhibitors” (priority 2019, dated 2023).
